According to ChEMBL document CHEMBL4020829, “Structure-Activity Relationships and Computational Investigations into the Development of Potent and Balanced Dual-Acting Butyrylcholinesterase Inhibitors and Human Cannabinoid Receptor 2 Ligands with Pro-Cognitive in Vivo Profiles” (J Med Chem, 2018):
Activity calls are given as the source filed them. The rule behind the calls is not given here.

Columns and labels:
Cholinesterase [1] = biological target: T1, Cholinesterase (Homo sapiens, UniProt P06276)
T1 sequence (P06276 whole entry): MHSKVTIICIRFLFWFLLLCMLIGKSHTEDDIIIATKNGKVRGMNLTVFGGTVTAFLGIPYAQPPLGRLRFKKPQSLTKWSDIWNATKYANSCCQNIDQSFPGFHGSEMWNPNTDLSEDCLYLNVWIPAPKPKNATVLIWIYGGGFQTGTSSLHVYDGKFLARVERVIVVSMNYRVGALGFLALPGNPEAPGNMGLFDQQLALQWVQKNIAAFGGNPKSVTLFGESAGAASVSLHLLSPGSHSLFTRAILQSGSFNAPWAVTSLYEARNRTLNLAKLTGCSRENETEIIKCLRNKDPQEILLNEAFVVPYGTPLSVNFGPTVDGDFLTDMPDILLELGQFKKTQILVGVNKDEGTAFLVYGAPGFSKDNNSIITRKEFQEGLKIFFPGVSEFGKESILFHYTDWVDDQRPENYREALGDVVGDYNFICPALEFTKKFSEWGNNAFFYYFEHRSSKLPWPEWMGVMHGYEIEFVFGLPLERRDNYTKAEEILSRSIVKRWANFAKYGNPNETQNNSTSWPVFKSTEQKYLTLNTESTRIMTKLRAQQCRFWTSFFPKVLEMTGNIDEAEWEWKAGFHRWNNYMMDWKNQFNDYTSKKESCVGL

Acetylcholinesterase [2] = biological target: T2, Acetylcholinesterase (Homo sapiens, UniProt P22303)
T2 sequence (P22303 whole entry): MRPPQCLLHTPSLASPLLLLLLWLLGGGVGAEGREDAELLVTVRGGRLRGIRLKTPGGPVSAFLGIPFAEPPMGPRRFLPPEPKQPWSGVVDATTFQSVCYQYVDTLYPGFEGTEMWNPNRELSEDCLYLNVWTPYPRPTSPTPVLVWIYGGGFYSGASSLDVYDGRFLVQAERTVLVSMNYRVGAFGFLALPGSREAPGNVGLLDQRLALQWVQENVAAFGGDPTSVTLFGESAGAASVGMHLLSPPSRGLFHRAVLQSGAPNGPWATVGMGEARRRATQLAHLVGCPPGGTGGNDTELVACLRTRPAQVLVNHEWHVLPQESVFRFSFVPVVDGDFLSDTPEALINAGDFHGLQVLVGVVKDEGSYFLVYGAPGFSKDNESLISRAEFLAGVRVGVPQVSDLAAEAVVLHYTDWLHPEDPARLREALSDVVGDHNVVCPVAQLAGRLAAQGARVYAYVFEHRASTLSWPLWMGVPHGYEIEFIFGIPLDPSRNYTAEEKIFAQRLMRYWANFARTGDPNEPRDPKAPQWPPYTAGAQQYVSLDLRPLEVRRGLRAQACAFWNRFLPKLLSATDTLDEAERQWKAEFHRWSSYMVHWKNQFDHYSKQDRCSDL

Acetylcholinesterase [3] = biological target: Acetylcholinesterase (Electrophorus electricus, UniProt O42275); test: Inhibition of electric eel AChE using ATC iodide as substrate preincubated for 4.5 mins followed by substrate addition measured after 2.5 mins by Ellman's method
Sequence of Acetylcholinesterase (Electrophorus electricus, UniProt O42275) (O42275 whole entry): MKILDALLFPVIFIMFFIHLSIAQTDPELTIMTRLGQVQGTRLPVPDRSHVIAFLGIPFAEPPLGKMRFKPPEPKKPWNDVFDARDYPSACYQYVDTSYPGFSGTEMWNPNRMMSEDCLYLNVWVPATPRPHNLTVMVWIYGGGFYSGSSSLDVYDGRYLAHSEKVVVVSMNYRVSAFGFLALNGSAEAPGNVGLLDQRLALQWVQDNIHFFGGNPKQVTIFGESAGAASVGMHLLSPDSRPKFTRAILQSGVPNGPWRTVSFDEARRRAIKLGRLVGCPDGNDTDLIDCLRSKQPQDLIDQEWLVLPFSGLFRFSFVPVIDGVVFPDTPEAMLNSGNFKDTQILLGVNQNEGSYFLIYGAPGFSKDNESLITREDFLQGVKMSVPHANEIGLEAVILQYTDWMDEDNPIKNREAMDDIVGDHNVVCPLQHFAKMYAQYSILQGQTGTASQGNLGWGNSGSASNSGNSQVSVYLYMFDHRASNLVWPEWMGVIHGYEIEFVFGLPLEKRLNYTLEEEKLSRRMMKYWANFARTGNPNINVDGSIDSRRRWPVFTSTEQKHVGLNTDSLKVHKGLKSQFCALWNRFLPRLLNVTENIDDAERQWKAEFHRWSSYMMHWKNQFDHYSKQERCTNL

Cannabinoid receptor 2 [4] = biological target: T3, Cannabinoid receptor 2 (Homo sapiens, UniProt P34972); test: biochemical
T3 sequence (P34972 whole entry): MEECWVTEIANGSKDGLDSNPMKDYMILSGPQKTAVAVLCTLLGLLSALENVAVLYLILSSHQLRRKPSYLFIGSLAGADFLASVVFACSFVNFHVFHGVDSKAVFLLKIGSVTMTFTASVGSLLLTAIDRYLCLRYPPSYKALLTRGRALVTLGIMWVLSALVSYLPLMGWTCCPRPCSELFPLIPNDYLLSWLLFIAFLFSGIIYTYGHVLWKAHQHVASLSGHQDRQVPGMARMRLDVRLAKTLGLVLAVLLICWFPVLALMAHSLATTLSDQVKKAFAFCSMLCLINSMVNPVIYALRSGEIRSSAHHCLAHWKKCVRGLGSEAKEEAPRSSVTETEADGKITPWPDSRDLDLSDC
Description: Displacement of [3H]-CP55950 from human CB2 receptor expressed in HEK cell membranes after 3 hrs by scintillation counting method

U-266 = test: Cytotoxicity against human U266 cells assessed as decrease in cell viability after 72 hrs by MTT assay; assay type: cell-based; details: U-266, 72 h
Cannabinoid receptor 1 [5] = biological target: T4, Cannabinoid receptor 1 (Homo sapiens, UniProt P21554); test: Displacement of [3H]-[…] from human CB1 receptor expressed in CHO cell membranes at 10 uM after 3 hrs by scintillation counting method relative to control
T4 sequence (P21554 whole entry): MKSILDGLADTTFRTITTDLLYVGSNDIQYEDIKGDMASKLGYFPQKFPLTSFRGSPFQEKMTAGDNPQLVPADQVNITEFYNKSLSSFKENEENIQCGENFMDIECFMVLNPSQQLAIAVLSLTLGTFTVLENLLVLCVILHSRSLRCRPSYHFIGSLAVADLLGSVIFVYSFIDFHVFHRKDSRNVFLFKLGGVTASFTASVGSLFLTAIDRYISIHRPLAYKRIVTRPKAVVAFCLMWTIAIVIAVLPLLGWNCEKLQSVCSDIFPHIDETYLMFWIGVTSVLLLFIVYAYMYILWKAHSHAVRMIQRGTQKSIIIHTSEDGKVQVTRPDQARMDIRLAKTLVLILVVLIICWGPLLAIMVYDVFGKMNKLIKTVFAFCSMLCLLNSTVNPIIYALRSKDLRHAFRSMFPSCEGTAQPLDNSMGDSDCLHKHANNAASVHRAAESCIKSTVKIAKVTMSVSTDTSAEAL

[6] = biological target: Acetylcholinesterase (Electrophorus electricus) (UniProt O42275); test: Inhibition of electric eel AChE at 10 uM using ATC iodide as substrate preincubated for 4.5 mins followed by substrate addition measured after 2.5 mins by Ellman's method relative to control
Sequence of Acetylcholinesterase (Electrophorus electricus) (O42275 24-633 limits assumed): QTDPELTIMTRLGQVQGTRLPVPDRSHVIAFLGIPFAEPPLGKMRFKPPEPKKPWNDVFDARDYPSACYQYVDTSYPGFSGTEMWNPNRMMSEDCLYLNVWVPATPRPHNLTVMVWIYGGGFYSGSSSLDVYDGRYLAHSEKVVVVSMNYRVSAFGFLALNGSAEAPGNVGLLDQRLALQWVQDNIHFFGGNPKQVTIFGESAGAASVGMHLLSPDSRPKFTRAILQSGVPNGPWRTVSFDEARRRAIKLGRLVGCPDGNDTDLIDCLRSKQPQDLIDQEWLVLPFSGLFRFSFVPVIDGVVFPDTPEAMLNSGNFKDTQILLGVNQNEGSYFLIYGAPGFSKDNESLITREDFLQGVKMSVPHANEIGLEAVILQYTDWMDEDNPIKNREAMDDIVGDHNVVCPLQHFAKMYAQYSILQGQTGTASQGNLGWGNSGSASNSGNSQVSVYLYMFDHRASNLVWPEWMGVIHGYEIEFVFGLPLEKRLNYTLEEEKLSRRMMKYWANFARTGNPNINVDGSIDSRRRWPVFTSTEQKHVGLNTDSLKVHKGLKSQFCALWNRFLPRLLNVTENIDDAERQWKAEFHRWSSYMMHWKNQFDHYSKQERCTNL

Acetylcholinesterase [7] = biological target: T2, Acetylcholinesterase; test: Inhibition of human erythrocyte AChE at 10 uM using ATC iodide as substrate preincubated for 4.5 mins followed by substrate addition measured after 2.5 mins by Ellman's method relative to control
Cannabinoid receptor 2 [8] = biological target: T3, Cannabinoid receptor 2; details: 10 uM
Description: Displacement of [3H]-CP55950 from human CB2 receptor expressed in HEK cell membranes at 10 uM after 3 hrs by scintillation counting method relative to control

[9] = biological target: Acetylcholinesterase (Electrophorus electricus) (UniProt O42275); test: Inhibition of electric eel AChE at 50 uM using ATC iodide as substrate preincubated for 4.5 mins followed by substrate addition measured after 2.5 mins by Ellman's method relative to control
Cholinesterase [10] = biological target: T1, Cholinesterase; test: Inhibition of human BChE at 50 uM using BTC iodide as substrate preincubated for 4.5 mins followed by substrate addition measured after 2.5 mins by Ellman's method relative to control
[11] = biological target: Acetylcholinesterase (Electrophorus electricus) (UniProt O42275); test: Inhibition of electric eel AChE at 25 uM using ATC iodide as substrate preincubated for 4.5 mins followed by substrate addition measured after 2.5 mins by Ellman's method relative to control
Cholinesterase [12] = biological target: T1, Cholinesterase; test: Inhibition of human BChE at 25 uM using BTC iodide as substrate preincubated for 4.5 mins followed by substrate addition measured after 2.5 mins by Ellman's method relative to control
Cannabinoid receptor 2 [13] = biological target: T3, Cannabinoid receptor 2; test: Agonist activity at CB2 receptor in human U266 cells assessed as decrease in MIF mRNA expression at 50 uM after 2 hrs by qRT-PCR method; assay type: cell-based
Cannabinoid receptor 2 [14] = biological target: T3, Cannabinoid receptor 2; test: Agonist activity at CB2 receptor in human U266 cells assessed as decrease in cAMP accumulation at 50 uM after 2 hrs by ELISA; assay type: functional, cell-based
Cannabinoid receptor 2 [15] = biological target: T3, Cannabinoid receptor 2; test: Agonist activity at CB2 receptor in human U266 cells assessed as decrease in AM630-induced STAT3 mRNA expression at 50 uM after 2 hrs by qRT-PCR method; assay type: cell-based
Cannabinoid receptor 2 [16] = biological target: T3, Cannabinoid receptor 2; test: Agonist activity at CB2 receptor in human U266 cells assessed as decrease in STAT3 mRNA expression at 50 uM after 2 hrs by qRT-PCR method; assay type: cell-based
Cannabinoid receptor 2 [17] = biological target: T3, Cannabinoid receptor 2; test: Agonist activity at CB2 receptor in human U266 cells assessed as decrease in AM630-induced MIF mRNA expression at 50 uM after 2 hrs by qRT-PCR method; assay type: cell-based
[18] = biological target: Acetylcholinesterase (Electrophorus electricus) (UniProt O42275); test: Inhibition of electric eel AChE at 100 uM using ATC iodide as substrate preincubated for 4.5 mins followed by substrate addition measured after 2.5 mins by Ellman's method relative to control
Cannabinoid receptor 2 [19] = biological target: T3, Cannabinoid receptor 2; test: Agonist activity at CB2 receptor in human U266 cells assessed as decrease in AM630-induced cAMP accumulation at 50 uM after 2 hrs by ELISA; assay type: functional, cell-based
Cholinesterase [20] = biological target: Cholinesterase (Equus caballus, UniProt P81908); test: Inhibition of equine BChE using BTC iodide as substrate preincubated for 4.5 mins followed by substrate addition measured after 2.5 mins by Ellman's method
Sequence of Cholinesterase (Equus caballus, UniProt P81908) (P81908 whole entry): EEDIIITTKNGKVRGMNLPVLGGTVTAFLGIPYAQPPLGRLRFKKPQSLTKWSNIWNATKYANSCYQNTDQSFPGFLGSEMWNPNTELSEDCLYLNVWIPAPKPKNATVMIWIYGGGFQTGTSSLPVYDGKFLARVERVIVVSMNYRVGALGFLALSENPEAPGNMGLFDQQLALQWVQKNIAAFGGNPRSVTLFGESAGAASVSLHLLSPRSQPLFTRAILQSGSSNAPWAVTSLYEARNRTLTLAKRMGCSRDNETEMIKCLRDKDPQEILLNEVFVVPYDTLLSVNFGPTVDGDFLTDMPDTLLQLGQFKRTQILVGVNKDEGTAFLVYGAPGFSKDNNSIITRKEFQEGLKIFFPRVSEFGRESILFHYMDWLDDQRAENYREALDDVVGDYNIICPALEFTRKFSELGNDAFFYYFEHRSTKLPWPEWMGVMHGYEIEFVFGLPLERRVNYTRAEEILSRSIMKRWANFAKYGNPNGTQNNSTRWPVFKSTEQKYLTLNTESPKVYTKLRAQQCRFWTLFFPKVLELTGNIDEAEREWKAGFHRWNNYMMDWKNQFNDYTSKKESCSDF

Cholinesterase [21] = biological target: T1, Cholinesterase; test: Inhibition of human BChE at 10 uM using BTC iodide as substrate preincubated for 4.5 mins followed by substrate addition measured after 2.5 mins by Ellman's method relative to control
Mus musculus [22] = test: Pro-cognitive activity in amyloid beta (25 to 35)-treated Swiss mouse assessed as increase in locomotion by measuring number of arms entered during session at 3 mg/kg, ip administered for 7 days measured on day 8 by Y-maze test; assay type: functional, organism-based
Acetylcholinesterase [23] = biological target: T2, Acetylcholinesterase; test: Inhibition of human erythrocyte AChE at 100 uM using ATC iodide as substrate preincubated for 4.5 mins followed by substrate addition measured after 2.5 mins by Ellman's method relative to control
Mus musculus [24] = test: Toxicity in Swiss mouse assessed as body weight gain per day at 0.3 to 3 mg/kg, ip administered for 7 days measured during compound dosing; assay type: organism-based; details: in vivo, 168 h
Mus musculus [25] = test: Pro-cognitive activity in Swiss mouse assessed as prevention of amyloid beta (25 to 35)-induced increase in escape latency at 1 to 3 mg/kg, ip administered for 7 days measured on day 10 by passive avoidance test; assay type: functional, organism-based
Cannabinoid receptor 1 [26] = biological target: T4, Cannabinoid receptor 1; test: biochemical; assay type: cell-based
Description: Displacement of [3H]-CP55950 from human CB1 receptor expressed in CHO cell membranes after 3 hrs by scintillation counting method

Mus musculus [27] = test: Pro-cognitive activity in Swiss mouse assessed as prevention of amyloid beta (25 to 35)-induced step through latency deficit at 3 mg/kg, ip administered for 7 days measured on day 10 by passive avoidance test; assay type: functional, organism-based
Mus musculus [28] = test: Toxicity in Swiss mouse assessed as changes in fur aspects at 0.3 to 3 mg/kg, ip administered for 7 days measured during compound dosing; assay type: organism-based; details: in vivo, 168 h
Mus musculus [29] = test: Toxicity in Swiss mouse assessed as abdominal pain at 0.3 to 3 mg/kg, ip administered for 7 days measured during compound dosing; assay type: organism-based; details: in vivo, 168 h
Mus musculus [30] = test: Toxicity in Swiss mouse assessed as body weight loss at 0.3 to 3 mg/kg, ip administered for 7 days measured during compound dosing; assay type: organism-based; details: in vivo, 168 h
Mus musculus [31] = test: Toxicity in Swiss mouse assessed as body weight gain per day at 1 mg/kg, ip administered for 7 days measured during compound dosing; assay type: organism-based; details: in vivo, 168 h
Mus musculus [32] = test: Toxicity in Swiss mouse assessed as behavioral alteration at 0.3 to 3 mg/kg, ip administered for 7 days measured during compound dosing; assay type: organism-based; details: in vivo, 168 h
Mus musculus [33] = test: Toxicity in Swiss mouse assessed as prostration at 0.3 to 3 mg/kg, ip administered for 7 days measured during compound dosing; assay type: organism-based; details: in vivo, 168 h
Mus musculus [34] = test: Toxicity in Swiss mouse assessed as body weight gain per day at 3 mg/kg, ip administered for 7 days measured during compound dosing; assay type: organism-based; details: in vivo, 168 h
Mus musculus [35] = test: Toxicity in Swiss mouse assessed as body weight gain per day at 0.3 mg/kg, ip administered for 7 days measured during compound dosing; assay type: organism-based; details: in vivo, 168 h
Mus musculus [36] = test: Pro-cognitive activity in ip dosed Swiss mouse assessed as prevention of amyloid beta (25 to 35)-induced step through latency deficit administered for 7 days measured on day 10 by passive avoidance test; assay type: functional, organism-based
Cholinesterase [37] = biological target: T1, Cholinesterase; test: Inhibition of human BChE at 100 uM using BTC iodide as substrate preincubated for 4.5 mins followed by substrate addition measured after 2.5 mins by Ellman's method relative to control

SMILES	IC50 (Cholinesterase [1]) [µM]	IC50 (Cannabinoid receptor 2 [4]) [µM]	Ki (Cannabinoid receptor 2 [4]) [µM]	IC50 (U-266) [µM]	inhibition (Cannabinoid receptor 1 [5]) [%]	inhibition [6] [%]	inhibition (Acetylcholinesterase [7]) [%]	inhibition [18] [%]	inhibition (Cholinesterase [21]) [%]	also measured
CCOc1ccc(Cc2nc3cc(C(=O)N(CC)CC)ccc3n2CCCCN2CCCCC2)cc1	2.7	5.01	4.8	> 40	2					IC50 (Acetylcholinesterase [2]): 60.1 µM; IC50 (Acetylcholinesterase [3]): 20.5 µM
CCCCCCNC(=O)c1ccc2c(c1)nc(Cc1ccc(OCC)cc1)n2CCC(C)C	5.2	2	1.9	> 40	39	8	6			
Cc1c(C(=O)NN2CCCCC2)nn(-c2ccc(Cl)cc2Cl)c1-c1ccc(Cl)cc1										inhibition (Cannabinoid receptor 2 [8]): 4%
CCOc1ccc(CNc2nc3cc(C(=O)N(CC)CC)ccc3n2CCC(C)C)cc1		0.398	0.353		21					inhibition [9]: 7%; inhibition (Cholinesterase [10]): 4%
CCN(CC)C(=O)c1ccc2c(c1)nc(Nc1ccc(Oc3ccccc3)cc1)n2CCN1CCCCC1		7.94	8.9		37					inhibition [11]: 3%; inhibition (Cholinesterase [12]): 4%
CCN(CC)C(=O)c1ccc2c(c1)nc(Nc1ccc(Oc3ccccc3)cc1)n2CCC(C)C		0.501	0.426	> 40	45		3	2	0	Activity (Cannabinoid receptor 2 [13]): Active; Activity (Cannabinoid receptor 2 [14]): Active; Activity (Cannabinoid receptor 2 [15]): Active; Activity (Cannabinoid receptor 2 [16]): Active; Activity (Cannabinoid receptor 2 [17]): Active; Activity (Cannabinoid receptor 2 [19]): Active; IC50 (Cholinesterase [20]): 3.7 µM
CCOc1ccc(Cc2nc3cc(C(=O)N(CC)CC)ccc3n2CCC(C)C)cc1					24			28	2	Activity (Mus musculus [22]): Active; Activity (Cannabinoid receptor 2 [13]): Active; Activity (Cannabinoid receptor 2 [14]): Active; Activity (Cannabinoid receptor 2 [15]): Active; Activity (Cannabinoid receptor 2 [16]): Active; Activity (Cannabinoid receptor 2 [17]): Active; inhibition (Acetylcholinesterase [23]): 6%; Activity (Cannabinoid receptor 2 [19]): Active; Activity (Mus musculus [24]): 0.3 g; IC50 (Cholinesterase [20]): 9.7 µM; Activity (Mus musculus [25]): Active
CCOc1ccc(Cc2nc3cc(C(=O)N4CCCCC4)ccc3n2CCC(C)C)cc1	5.7	0.398	0.384			8	2			IC50 (Cannabinoid receptor 1 [26]): 15.8 µM; Ki (Cannabinoid receptor 1 [26]): 17 µM
CCOc1ccc(Cc2nc3cc(C(=O)Nc4ccccc4)ccc3n2CCC(C)C)cc1	1.2	15.8	14.4	> 40	18	2	5			
CCOc1ccc(Nc2nc3cc(C(=O)N(CC)CC)ccc3n2CCC(C)C)cc1		2	1.9	> 40	13		13	4	3	Activity (Mus musculus [22]): Active; Activity (Mus musculus [27]): Active; Activity (Cannabinoid receptor 2 [13]): Active; Activity (Cannabinoid receptor 2 [14]): Active; Activity (Cannabinoid receptor 2 [15]): Active; Activity (Cannabinoid receptor 2 [16]): Active; Activity (Cannabinoid receptor 2 [17]): Active; Activity (Cannabinoid receptor 2 [19]): Active; Activity (Mus musculus [24]): 0.3 g; IC50 (Cholinesterase [20]): 0.7 µM; Activity (Mus musculus [25]): Active
CCOc1ccc(Cc2nc3cc(C(=O)NC45CC6CC(CC(C6)C4)C5)ccc3n2CCC(C)C)cc1		5.01	4.7	> 40	31	5			1	
CCOc1ccc(Cc2nc3cc(NC(=O)c4ccccc4)ccc3n2CCC(C)C)cc1		3.98	4.3		36	2			25	
CCOc1ccc(Cc2nc3cc(C(=O)NCCC(C)C)ccc3n2CCC(C)C)cc1				> 40	37		11			inhibition [11]: 3%; Activity (Mus musculus [28]): Non-Toxic; Activity (Mus musculus [29]): Non-Toxic; Activity (Mus musculus [30]): Non-Toxic; Activity (Mus musculus [31]): 0.1 g; Activity (Mus musculus [32]): Non-Toxic; Activity (Mus musculus [33]): Non-Toxic; Activity (Mus musculus [34]): 0 g; Activity (Mus musculus [35]): 0.2 g; Activity (Mus musculus [36]): Dose-dependent effect; Activity (Mus musculus [25]): Active
CCOc1ccc(Nc2nc3cc(C(=O)N(CC)CC)ccc3n2CCN2CCCCC2)cc1	53.4	12.6	10.4		17		3	18		
CCOc1ccc(Cc2nc3cc(C(=O)N(CC)CC)ccc3n2CCCCCCN2CCCCC2)cc1	8.2	1.26	1		4					IC50 (Acetylcholinesterase [2]): 20 µM; IC50 (Acetylcholinesterase [3]): 11.9 µM
CCOc1ccc(Cc2nc3cc(N)ccc3n2CCC(C)C)cc1		20	21		27			15		inhibition (Cholinesterase [37]): 39%
